For data set [1], the target named is trypanothione synthetase of L. infantum (LiTryS) (Leishmania infantum, UniProt A4I2Z3). Briefly: TryS activity screening assay on recombinant LiTryS. It counts as biochemical. The conditions noted are these: for activity at 30 µM: read-out: LiTryS activity [% at 30 μM]; for LiTryS activity [% at 30 μM]: recombinant TryS, % activity at 30 μM compound, errors 2 SD. On the procedure: (§1) TryS from different trypanosomatids was produced in recombinant form with an N-terminal His-tag. The constructs pET-15b TbTryS and pET-28c(+)LiTryS were used to express TryS of T. b. brucei 427 (MITat1.4, GenBank accession protein id CAC87573.1), and L. infantum JPCM5 (GenBank accession protein id CAM69145.1). E. coli strain BL21 (DE3) served as the expression host. For TbTryS, the cells were cultured in a medium based in Terrific Broth and induction with isopropyl 1-thio-β-D-galactopyranoside (IPTG), while for LiTryS, the cells were cultured in ZYM-5052 auto-induction medium. For a detailed description of the expression, see Benítez et al.. The purification was performed by immobilised metal affinity chromatography in a HisTrap Fast Flow column (GE Healthcare) followed by size exclusion chromatography. […] The fractions containing recombinant TryS with ≥95% purity were pooled and concentrated to >10 mg protein/mL using a 10 kDa cut-off Amicon filter (Millipore, Billerica, CA). Glycerol was added at a final concentration of 40% (v/v). The samples were stored at -80°C. Enzyme purity and activity were assessed by SDS-PAGE (12%) under reducing conditions and by the end-point TryS assay (see TryS activity screening assay), respectively. Protein concentration was determined using the bicinchoninic acid assay with bovine serum albumin as standard. The protocols yielded 25–30 mg TbTryS or LiTryS per litre of culture medium and homogeneous specific activity.
(§2) For all TryS, ATP was used at 150 μM because of a high background signal at higher concentrations and Spd fixed at 2 mM, in agreement with the intracellular levels calculated from data reported in the literature for trypanosomatids. GSH was adjusted to 0.05 and 0.25 mM for TbTryS and LiTryS, respectively, to avoid substrate inhibition or to approach physiological concentrations. […] Microtiter plate wells were loaded with 5 μL of the test compound, DMSO (reaction control) or a TryS specific inhibitor (inhibition control) and 40 μL of MM solution. The reactions were then started by adding 5 μL of TryS (2 and 3*10^−5 μmol*min^-1*mL^-1 for LiTryS and TbTryS, respectively) and stopped after 15 min with 200 μL BIOMOL® GREEN reagent (Enzo Life Sciences). The compounds used as inhibition control were added at concentrations that inhibited 50% TryS activity: 30 μM and 150 nM MOL2008 for TbTryS and LiTryS, respectively. Blanks were prepared for each condition by adding 5 μL of screening reaction buffer instead of the enzyme. The TryS activity is calculated as follows: TrySactivity%=A650nmCi-A650nmCiB/A650nmE-A650nmEB*100%
(§3) A650 nm Ci is the mean absorbance at 650 nm for the reaction test with compound I (Ci), A650 nm CiB is the mean absorbance at 650 nm for the blank control with compound I (CiB), A650 nm E is the mean absorbance at 650 nm for the reaction control with DMSO (E) and A650 nm EB is the mean absorbance at 650 nm for the blank control with DMSO (EB). The errors were expressed as 2 standard deviations (SD), SD estimated as σ^n−1.

The test system of data set [2] is L. infantum amastigotes (intracellular, in J774.A1 macrophages). Briefly: Viability assay for L. infantum amastigotes. It counts as cell-based. The conditions noted are these: Leishmania infantum, J774.A1, 24 h, read-out: L. infantum amastigote viability [% at 20 μM]. The procedure: Viability assay for L. infantum amastigotes. L. infantum promastigotes from the reference strain MHOM/MA/67/ITMAP263, stably transfected with a vector encoding a red-shifted luciferase gene (RE9HLUC; Branchini et al.; Benítez et al.) were grown in fresh complete RPMI medium (RPMI basic medium containing 25 mM HEPES, 10% v/v iFBS, 100 U/mL penicillin, 100 μg/mL streptomycin and 15 μg/mL hygromycin B) at 28°C in sealed culture flasks. Metacyclic promastigotes were obtained by a negative selection procedure using peanut agglutinin and used to infect murine macrophages (cell line J774.A1) at a 1:10 ratio for macrophages (5×10^6 cells): parasites (5×10^7 cells). 200 μL of this suspension was added per well to a 96-well culture microplate, which was then incubated at 37°C for 24 h in a 5% CO2/95% air atmosphere incubator. […] The culture microplate was incubated in the CO2 incubator for additional 24 h. Next, the supernatant was removed and the microplate wells were washed with pre-warmed PBS (200 μL). […] All conditions were tested in triplicates and the percentage amastigote viability was calculated as described for infective T. b. brucei, with errors expressed as one SD, estimated as σ^n-1.
A macrophage cell density correction factor based on the incorporation of propidium iodide was calculated and applied to normalise amastigote viability related to host cell density in the well. For a detailed explanation of the protocol, see Benítez et al..

Data set [3] can be described thus: Kinetic aqueous solubility by nephelometry. It counts as physicochemical. The conditions noted are these: phosphate-buffered saline, aqueous buffer, kinetic from dmso stock, PBS pH 7.4, 1% DMSO, 25°C, logS = decadic logarithm of molar solubility [M]. On the procedure: Phosphate-buffered saline pH 7.4 was prepared according to the European Pharmacopeia 10.4 by dissolving 2.38 g sodium monohydrogen phosphate dodecahydrate, 0.19 g potassium dihydrogen phosphate and 8.0 g sodium chloride in demineralised water (to a total volume of 1000 mL). The pH was adjusted to a value of 7.4 with hydrochloric acid. The buffer was filtered through a 0.45 μm membrane filter (Chromafil® Xtra PES-45/25) before use.
The kinetic aqueous solubility was determined by nephelometry. The measurements were performed on the NEPHELOstar Plus, with accompanying software Omega 5.11 and MARS 3.20 (BMG LABTECH, Ortenberg, Germany). Generally, 2 dilution series of 1–2 weighed portions of each substance were measured. First, stock solutions of the compounds were prepared in DMSO. A series of dilutions in DMSO were prepared from one stock solution to obtain at least 3 concentrations below and 3 concentrations above the precipitation point in the measured series. The specific concentrations were usually measured as duplicates.
The 96-well plate (Corning UV transparent flat-bottom 96-well plate, Corning Incorporated, Kennenbunk, ME, USA) was inspected for contamination and scratches and measured without samples prior to the solubility measurement of the compounds. 198 μL of phosphate-buffered saline pH 7.4 was placed in a 96 well plate for each well to be measured. 2 μL of a DMSO solution was added and immediately mixed by moving the pipette plunger. This solution either contained no substance—and served as a blank for the measurement (3 wells)—or the respective DMSO dilution of the substance (2–4 wells). The concentration of the solvent DMSO in each measured solution was 1%. The concentration of the compound corresponds to a 1:100 dilution compared to the respective DMSO dilution. The well plate bottom was cleaned with a lint-free cloth and compressed air and inspected for impurities before measurement. After shaking at 500 rpm for 10 s (double orbital), the measurement was carried out in the nephelometer with the laser intensity set to 80% and beam focus of 2.5 mm at a temperature of 25°C.
The obtained measuring points, relative nephelometric units (RNU) per compound concentration, were used to model two straight lines: one straight line with constant low readings and slope → 0 characterises the concentration range where no precipitation has taken place yet; The other straight line has a steep slope and increase of the RNU per concentration and characterises the concentrations at which precipitation takes place in the respective sample vessels.
The evaluation was carried out by calculating the two straight lines and their point of intersection. Outliers and values in a saturation range for the kick-off curve (usually >800 kRNU) were not used to create the straight lines and are listed separately in the evaluation file. […] The x-value of the intersection of the two straight lines represents the kinetic solubility. The results of two dilution series are additionally indicated as range (in brackets). For measurements of 3 or more series, a mean value with standard deviation is provided. The logS value describes the decadic logarithm of the molar solubility: logS (molar solubility [M]).

Data set [4] relates to trypanothione synthetase of T. b. brucei (TbTryS). Briefly: TryS activity screening assay on recombinant TbTryS. The conditions noted are these: % activity at 30 μM compound, errors 2 SD. It counts as biochemical. On the procedure:
as §1, §2, §3

Data set [5] concerns bloodstream form of T. b. brucei strain 427. Briefly: Viability assay for T. b. brucei (whole parasite, bioluminescence). The data set is classed as cell-based. The conditions noted are these: 24 h; for T. b. brucei (BS) proliferation [% at 10 μM]: 10 μM compound. The procedure:
Viability assay for T. b. brucei. The bloodstream form of the monomorphic T. b. brucei strain 427, cell line 5141313, constitutively and stably expressing an ectopic copy of the Photinus pyralis red-shifted luciferase, was cultured in vitro with HMI-9 medium, supplemented with 10% fetal bovine serum, 10 U/mL penicillin (Gibco), 10 μg/mL streptomycin (Gibco), 0.2 μg/mL bleomycin (Jena Bioscience), 4 μg/mL G418 disulfate salt (Sigma-Aldrich) and 0.2 μg/mL puromycin (Invitrogen), inside a humidified incubator (Thermo Fisher Scientific) with controlled temperature (37°C) and CO2 (5%) in a 25 or 75 cm^2 vented-cap culture-flask. The anti-trypanosomal activity of compounds was evaluated in a 96-well culture plate containing 2.2 μL/well DMSO (negative control) or compounds dissolved in DMSO (1% final concentration), and 220 μL/well of a suspension of 1 × 10^5 parasites/mL. The plates were incubated at 37°C and 5% CO2 for 24 h. Next, each well was transferred to a 96-well black plate, and 20 μL of a solution containing d-luciferin (1.5 mg/mL in PBS glucose 1% w/v) and Triton X-100 (0.05% v/v) was added. Bioluminescence signal was measured in a LUMIstar OPTIMA Microplate luminometer using the following settings: 10 s shaking, 5 s/well acquisition, 0.2 s measurement delay, maximum gain, and 37°C. For the bioluminescence assay, parasite viability was calculated according to the following formula: parasiteviability%=BLcpd-BLblank/BLneg-BLblank*100%
BL refers to the mean of bioluminescence signal corresponding to the tested compound (cpd), the blank (blank, complete media containing 1% v/v DMSO), or the negative control (neg, parasites treated with 1% v/v DMSO). EC50 values were determined from concentration-response curves fitted to a four-parameter sigmoid equation using the GraphPad Prism software (version 6.0). All errors are expressed as one SD, estimated as σ^n-1. For a detailed explanation of the protocol, see Dibello et al..

Structures can show the parent of a compound that is named as a salt. Some results are limits rather than exact numbers.

Sequence of trypanothione synthetase of L. infantum (LiTryS) (A4I2Z3 entry or part of it): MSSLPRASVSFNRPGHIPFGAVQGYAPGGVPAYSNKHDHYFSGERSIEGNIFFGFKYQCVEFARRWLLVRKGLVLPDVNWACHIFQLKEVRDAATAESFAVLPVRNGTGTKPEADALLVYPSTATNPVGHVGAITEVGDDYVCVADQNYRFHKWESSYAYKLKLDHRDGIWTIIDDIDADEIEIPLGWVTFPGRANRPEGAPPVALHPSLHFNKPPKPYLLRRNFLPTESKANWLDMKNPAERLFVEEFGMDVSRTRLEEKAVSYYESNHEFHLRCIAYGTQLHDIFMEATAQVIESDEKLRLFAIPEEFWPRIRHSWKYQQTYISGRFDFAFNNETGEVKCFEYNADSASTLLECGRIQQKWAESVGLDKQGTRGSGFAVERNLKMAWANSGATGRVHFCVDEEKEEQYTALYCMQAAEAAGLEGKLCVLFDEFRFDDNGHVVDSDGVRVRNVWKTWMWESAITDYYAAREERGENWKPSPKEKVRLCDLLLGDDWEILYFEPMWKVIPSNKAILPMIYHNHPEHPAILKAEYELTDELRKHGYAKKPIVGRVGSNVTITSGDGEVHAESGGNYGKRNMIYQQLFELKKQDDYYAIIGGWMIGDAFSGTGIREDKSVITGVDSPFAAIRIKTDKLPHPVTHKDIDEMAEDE

In general, viability refers to a per cent measure of how many cells are alive, often set against a control. What is called solubility (kinetic) is the concentration staying in solution when a stock, usually in DMSO, is diluted into the medium. With `CON=C1CCC(=O)N(CC(=O)NCCN2CCNCC2)c2ccccc21` (mixture of isomers) [5d, (E/Z)-2-[5-(Methoxyimino)-2-oxo-2,3,4,5-tetrahydro-1H-benzo[b]azepin-1-yl]-N-[2-(piperazin-1-yl)ethyl]acetamide dihydrochloride], in data set [1], the activity at 30 µM was found to be 97.5 ± 4.7%. The viability at 20 µM in data set [2] worked out at 74.9 ± 11.2%. Moreover, the kinetic solubility at 10 s in data set [3] is > 0.001 M.
Consider `Cl.O=C(CN1C(=O)CCCc2ccccc21)N1CCNCC1` [2q, 1-[2-Oxo-2-(piperazin-1-yl)ethyl]-1,3,4,5-tetrahydro-2H-benzo[b]azepin-2-one hydrochloride], for which the activity at 30 µM in data set [1] worked out at 113 ± 10.7%. In data set [3], the kinetic solubility at 10 s is > 0.00398 M.
Usually EC50 stands for the concentration needed to bring the measured effect to its halfway point. `O=C(O)CN1C(=O)Cc2c([nH]c3ccc(I)cc23)-c2ccc(Cl)cc21` [9a, 2-(3-Chloro-9-iodo-6-oxo-7,12-dihydrobenzo[2,3]azepino[4,5-b]indol-5(6H)-yl)acetic acid]: in data set [1], the activity at 30 µM stood at 67.2 ± 3.9% and the “LiTryS activity [% at 30 μM]” value is given as “moderate inhibitory activity”. Further, the “TbTryS activity [% at 30 μM]” value in data set [4] came to 102.9 ± 6.7%. Besides, the “T. b. brucei (BS) proliferation [% at 10 μM]” value (from here on “T. b. brucei … [% at 10 μM]”) in data set [5] came out at 24.2 ± 3.4%. Besides, the EC50 in data set [5] (Trypanosoma brucei, read-out: T. b. brucei (BS) [EC50) turned out to be 10.5 ± 1.3 µM.
In the case of `O=C(O)CN1C(=O)Cc2c([nH]c3ccc(Cl)cc23)-c2ccc(Cl)cc21` [9b, 2-(3,9-Dichloro-6-oxo-7,12-dihydrobenzo[2,3]azepino[4,5-b]indol-5(6H)-yl)acetic acid], the activity at 30 µM in data set [1] is 90.2 ± 6.7%. Also, the “TbTryS activity [% at 30 μM]” value in data set [4] was determined as 104.0 ± 10.1%. Besides, in data set [5], the “T. b. brucei … [% at 10 μM]” value is on record as 56.4 ± 3.8%.
In the case of `O=C(O)CN1C(=O)Cc2c([nH]c3ccc(C(F)(F)F)cc23)-c2ccc(Cl)cc21` [9c, 2-(3-Chloro-6-oxo-9-trifluoromethyl-7,12-dihydrobenzo[2,3]azepino[4,5-b]indol-5(6H)-yl)acetic acid], in data set [1], the activity at 30 µM came to 62.4 ± 6.4% and the “LiTryS activity [% at 30 μM]” value is “moderate inhibitory activity”. In addition, the “TbTryS activity [% at 30 μM]” value in data set [4] is listed as 110.2 ± 11.5%. In data set [5], the “T. b. brucei … [% at 10 μM]” value was found to be 61.6 ± 10.2%.

Values taken from publication PMC10688702, “The indole motif is essential for the antitrypanosomal activity of N^5-substituted paullones” (PLOS ONE, 2023).
